Source: publication PMC8185074, “Anchor extension: a structure-guided approach to design cyclic peptides targeting enzyme active sites” (Nature Communications, 2021)
Peptide text beside a SMILES is read from it.

How the values were obtained:
Format in all cases: biochemical
HDAC3 = molecular target: T1, HDAC3 (Homo sapiens, UniProt O15379); assay: HDAC3 inhibition, full IC50 measurement (Reaction Biology; fluorogenic p53 peptide RHKK(Ac)AMC)
T1 construct: purchased Reaction Biology Corporation (assay run by the CRO)
T1 sequence (O15379 whole entry): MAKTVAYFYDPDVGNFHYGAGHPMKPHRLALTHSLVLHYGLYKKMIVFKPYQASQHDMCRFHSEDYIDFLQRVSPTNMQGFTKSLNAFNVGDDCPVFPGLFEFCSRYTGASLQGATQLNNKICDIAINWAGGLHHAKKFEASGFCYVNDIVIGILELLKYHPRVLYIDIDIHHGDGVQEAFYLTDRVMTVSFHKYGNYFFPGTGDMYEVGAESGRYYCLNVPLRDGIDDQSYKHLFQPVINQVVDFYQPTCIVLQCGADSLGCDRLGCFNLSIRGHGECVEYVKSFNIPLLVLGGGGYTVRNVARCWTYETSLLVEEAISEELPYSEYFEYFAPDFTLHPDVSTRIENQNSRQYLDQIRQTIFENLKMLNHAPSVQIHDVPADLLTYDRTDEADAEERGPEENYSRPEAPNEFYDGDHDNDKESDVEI
T1 sequence (Q9Y618 395-489 partner limits assumed): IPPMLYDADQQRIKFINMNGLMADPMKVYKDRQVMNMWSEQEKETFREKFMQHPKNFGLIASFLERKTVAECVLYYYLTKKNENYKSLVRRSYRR
Method in brief: (§1)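 Test peptides were dispensed acoustically with enzyme in 50 mM Tris-HCl pH 8.0, 137 mM NaCl, 2.7 mM KCl, 1 mM MgCl2, 1 mg/ml BSA and 1% DMSO. After adding 50 μM RHKK(Ac)AMC, reactions ran 1 h at 30 °C, then developer was added.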

HDAC6 = molecular target: T2, HDAC6 (Homo sapiens, UniProt Q9UBN7); assay: HDAC6 inhibition, full IC50 measurement (Reaction Biology; fluorogenic p53 peptide RHKK(Ac)AMC)
T2 construct: purchased Reaction Biology Corporation (assay run by the CRO)
T2 sequence (Q9UBN7 1-1215): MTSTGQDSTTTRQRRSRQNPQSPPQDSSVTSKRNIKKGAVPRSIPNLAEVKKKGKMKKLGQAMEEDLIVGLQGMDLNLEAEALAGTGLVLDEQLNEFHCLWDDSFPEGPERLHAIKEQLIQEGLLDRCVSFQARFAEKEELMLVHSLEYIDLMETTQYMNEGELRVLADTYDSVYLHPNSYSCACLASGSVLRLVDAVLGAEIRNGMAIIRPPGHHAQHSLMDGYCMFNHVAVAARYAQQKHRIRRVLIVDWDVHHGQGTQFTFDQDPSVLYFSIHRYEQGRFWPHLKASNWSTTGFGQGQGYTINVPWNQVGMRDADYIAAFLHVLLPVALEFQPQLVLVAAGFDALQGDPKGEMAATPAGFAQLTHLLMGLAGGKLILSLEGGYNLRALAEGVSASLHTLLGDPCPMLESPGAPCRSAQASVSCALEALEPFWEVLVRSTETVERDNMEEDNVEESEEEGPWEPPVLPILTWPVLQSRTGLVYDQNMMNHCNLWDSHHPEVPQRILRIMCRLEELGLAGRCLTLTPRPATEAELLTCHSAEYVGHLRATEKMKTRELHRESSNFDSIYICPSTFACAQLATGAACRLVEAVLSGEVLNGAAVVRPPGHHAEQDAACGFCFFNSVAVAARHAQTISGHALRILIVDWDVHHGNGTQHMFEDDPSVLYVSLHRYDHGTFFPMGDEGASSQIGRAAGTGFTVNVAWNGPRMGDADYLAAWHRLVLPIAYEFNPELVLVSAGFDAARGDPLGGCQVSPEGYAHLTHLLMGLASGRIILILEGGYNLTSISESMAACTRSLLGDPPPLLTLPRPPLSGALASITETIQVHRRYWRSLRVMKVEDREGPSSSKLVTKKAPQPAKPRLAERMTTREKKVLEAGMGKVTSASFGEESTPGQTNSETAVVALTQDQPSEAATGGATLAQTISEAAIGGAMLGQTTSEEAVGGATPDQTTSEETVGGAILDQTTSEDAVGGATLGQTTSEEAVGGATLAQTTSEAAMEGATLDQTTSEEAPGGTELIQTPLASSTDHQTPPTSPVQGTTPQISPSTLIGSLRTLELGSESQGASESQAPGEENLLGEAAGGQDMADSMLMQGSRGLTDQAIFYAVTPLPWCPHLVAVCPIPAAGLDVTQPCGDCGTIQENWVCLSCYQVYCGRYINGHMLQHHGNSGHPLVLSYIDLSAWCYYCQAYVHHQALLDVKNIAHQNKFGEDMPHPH
Method in brief: as §1

HDAC2 = molecular target: T3, HDAC2 (Homo sapiens, UniProt Q92769); assay: Initial HDAC2 IC50 estimate (BPS Biosciences HDAC fluorogenic assay kit); conditions: Supplementary Dataset 2; read-out: HDAC2 activity (initial activity)
T3 construct: purchased Reaction Biology Corporation (assay run by the CRO)
T3 sequence (Q92769 whole entry): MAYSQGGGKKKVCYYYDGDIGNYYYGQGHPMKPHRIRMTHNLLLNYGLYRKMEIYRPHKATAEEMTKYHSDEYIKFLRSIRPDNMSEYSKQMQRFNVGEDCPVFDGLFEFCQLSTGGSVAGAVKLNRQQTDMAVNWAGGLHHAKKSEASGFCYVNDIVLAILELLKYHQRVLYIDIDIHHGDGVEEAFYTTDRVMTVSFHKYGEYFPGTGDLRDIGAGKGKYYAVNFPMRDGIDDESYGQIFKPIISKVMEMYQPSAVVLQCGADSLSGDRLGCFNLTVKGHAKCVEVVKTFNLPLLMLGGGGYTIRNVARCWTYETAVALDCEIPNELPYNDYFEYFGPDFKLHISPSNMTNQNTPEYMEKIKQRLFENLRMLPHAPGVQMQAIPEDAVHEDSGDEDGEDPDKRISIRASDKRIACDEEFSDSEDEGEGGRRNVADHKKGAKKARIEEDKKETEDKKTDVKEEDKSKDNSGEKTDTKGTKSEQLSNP
Method in brief: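 Inhibition measured by kit-based fluorogenic HDAC activity assays, with each point in duplicate or triplicate. Values come from a full 1 µM–100 pM series (1:10 steps) or are range estimates from just 20 nM and 200 nM.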

## N=C(N)NCCC[C@@H]1NC(=O)[C@H](Cc2c[nH]c3ccccc23)NC(=O)[C@H](CC(=O)O)NC(=O)[C@@H](CO)NC(=O)[C@H](Cc2c[nH]c3ccccc23)NC(=O)[C@H](CCCCCS)NC(=O)[C@H](CCC(N)=O)NC1=O [des4.1.0, SHA-Trp-dSer-Asp-Trp-Arg-Gln] (HELM PEPTIDE1{D.W.R.Q.[O=C([C@H](CCCCCS)N[*:1])[*:2]].W.[dS]}$PEPTIDE1,PEPTIDE1,1:R1-7:R2$$$V2.0)
HDAC3; Conc. 1.00E-05 M, t1
  HDAC3 activity raw data (signal): -1388
HDAC3; Conc. 1.00E-05 M, t2
  HDAC3 activity raw data (signal): 157
HDAC3; Conc. 1.11E-06 M, t1
  HDAC3 activity raw data (signal): 49544
HDAC3; Conc. 1.11E-06 M, t2
  HDAC3 activity raw data (signal): 53052
HDAC3; Conc. 1.23E-07 M, t1
  HDAC3 activity raw data (signal): 403506
HDAC3; Conc. 1.23E-07 M, t2
  HDAC3 activity raw data (signal): 392664
HDAC3; Conc. 1.37E-08 M, t1
  HDAC3 activity raw data (signal): 878874
HDAC3; Conc. 1.37E-08 M, t2
  HDAC3 activity raw data (signal): 905094
HDAC3; Conc. 1.52E-09 M, t1
  HDAC3 activity raw data (signal): 1051534
HDAC3; Conc. 1.52E-09 M, t2
  HDAC3 activity raw data (signal): 1009763
HDAC3; Conc. 3.33E-06 M, t1
  HDAC3 activity raw data (signal): 16525
HDAC3; Conc. 3.33E-06 M, t2
  HDAC3 activity raw data (signal): 4898
HDAC3; Conc. 3.70E-07 M, t1
  HDAC3 activity raw data (signal): 191695
HDAC3; Conc. 3.70E-07 M, t2
  HDAC3 activity raw data (signal): 162137
HDAC3; Conc. 4.12E-08 M, t1
  HDAC3 activity raw data (signal): 681441
HDAC3; Conc. 4.12E-08 M, t2
  HDAC3 activity raw data (signal): 656036
HDAC3; Conc. 4.57E-09 M, t1
  HDAC3 activity raw data (signal): 1007447
HDAC3; Conc. 4.57E-09 M, t2
  HDAC3 activity raw data (signal): 1022661
HDAC3; Conc. 5.08E-10 M, t1
  HDAC3 activity raw data (signal): 1094681
HDAC3; Conc. 5.08E-10 M, t2
  HDAC3 activity raw data (signal): 1129520
HDAC6; Conc. 1.00E-05 M, t1
  HDAC6 activity raw data (signal): 7877
HDAC6; Conc. 1.00E-05 M, t2
  HDAC6 activity raw data (signal): -8060
HDAC6; Conc. 1.11E-06 M, t1
  HDAC6 activity raw data (signal): 16871
HDAC6; Conc. 1.11E-06 M, t2
  HDAC6 activity raw data (signal): 12343
HDAC6; Conc. 1.23E-07 M, t1
  HDAC6 activity raw data (signal): 204372
HDAC6; Conc. 1.23E-07 M, t2
  HDAC6 activity raw data (signal): 163263
HDAC6; Conc. 1.37E-08 M, t1
  HDAC6 activity raw data (signal): 1871464
HDAC6; Conc. 1.37E-08 M, t2
  HDAC6 activity raw data (signal): 1633652
HDAC6; Conc. 1.52E-09 M, t1
  HDAC6 activity raw data (signal): 2518833
HDAC6; Conc. 1.52E-09 M, t2
  HDAC6 activity raw data (signal): 2655286
HDAC6; Conc. 3.33E-06 M, t1
  HDAC6 activity raw data (signal): 8242
HDAC6; Conc. 3.33E-06 M, t2
  HDAC6 activity raw data (signal): -3634
HDAC6; Conc. 3.70E-07 M, t1
  HDAC6 activity raw data (signal): 49535
HDAC6; Conc. 3.70E-07 M, t2
  HDAC6 activity raw data (signal): 45420
HDAC6; Conc. 4.12E-08 M, t1
  HDAC6 activity raw data (signal): 772837
HDAC6; Conc. 4.12E-08 M, t2
  HDAC6 activity raw data (signal): 534957
HDAC6; Conc. 4.57E-09 M, t1
  HDAC6 activity raw data (signal): 2466106
HDAC6; Conc. 4.57E-09 M, t2
  HDAC6 activity raw data (signal): 2168070
HDAC6; Conc. 5.08E-10 M, t1
  HDAC6 activity raw data (signal): 2603168
HDAC6; Conc. 5.08E-10 M, t2
  HDAC6 activity raw data (signal): 2401605
HDAC2
  IC50: 100 nM

## CC(C)[C@@H]1NC(=O)[C@H](CCCNC(=N)N)NC(=O)[C@@H](CC(=O)O)NC(=O)[C@H](CO)NC(=O)[C@@H](CO)NC(=O)[C@@H](CCC(=O)O)NC(=O)[C@H](Cc2ccc(O)cc2)NC(=O)[C@H](CCCCCS)NC1=O [des4.2.0, SHA-Tyr-dGlu-dSer-Ser-dAsp-Arg-Val] (HELM PEPTIDE1{R.V.[O=C([C@H](CCCCCS)N[*:1])[*:2]].Y.[dE].[dS].S.[dD]}$PEPTIDE1,PEPTIDE1,1:R1-8:R2$$$V2.0)
HDAC3; Conc. 1.00E-05 M, t1
  HDAC3 activity raw data (signal): 26422
HDAC3; Conc. 1.00E-05 M, t2
  HDAC3 activity raw data (signal): 22359
HDAC3; Conc. 1.11E-06 M, t1
  HDAC3 activity raw data (signal): 160928
HDAC3; Conc. 1.11E-06 M, t2
  HDAC3 activity raw data (signal): 163740
HDAC3; Conc. 1.23E-07 M, t1
  HDAC3 activity raw data (signal): 525206
HDAC3; Conc. 1.23E-07 M, t2
  HDAC3 activity raw data (signal): 581691
HDAC3; Conc. 1.37E-08 M, t1
  HDAC3 activity raw data (signal): 1076943
HDAC3; Conc. 1.37E-08 M, t2
  HDAC3 activity raw data (signal): 1111273
HDAC3; Conc. 1.52E-09 M, t1
  HDAC3 activity raw data (signal): 1186064
HDAC3; Conc. 1.52E-09 M, t2
  HDAC3 activity raw data (signal): 1359852
HDAC3; Conc. 3.33E-06 M, t1
  HDAC3 activity raw data (signal): 71800
HDAC3; Conc. 3.33E-06 M, t2
  HDAC3 activity raw data (signal): 63219
HDAC3; Conc. 3.70E-07 M, t1
  HDAC3 activity raw data (signal): 296381
HDAC3; Conc. 3.70E-07 M, t2
  HDAC3 activity raw data (signal): 296142
HDAC3; Conc. 4.12E-08 M, t1
  HDAC3 activity raw data (signal): 806773
HDAC3; Conc. 4.12E-08 M, t2
  HDAC3 activity raw data (signal): 863981
HDAC3; Conc. 4.57E-09 M, t1
  HDAC3 activity raw data (signal): 1182733
HDAC3; Conc. 4.57E-09 M, t2
  HDAC3 activity raw data (signal): 1313514
HDAC3; Conc. 5.08E-10 M, t1
  HDAC3 activity raw data (signal): 1345816
HDAC3; Conc. 5.08E-10 M, t2
  HDAC3 activity raw data (signal): 1394913
HDAC3; Supp. Table 1
  IC50: 71.2 nM
HDAC6; Conc. 1.00E-05 M, t1
  HDAC6 activity raw data (signal): -7055
HDAC6; Conc. 1.00E-05 M, t2
  HDAC6 activity raw data (signal): -3082
HDAC6; Conc. 1.11E-06 M, t1
  HDAC6 activity raw data (signal): 103285
HDAC6; Conc. 1.11E-06 M, t2
  HDAC6 activity raw data (signal): 106610
HDAC6; Conc. 1.23E-07 M, t1
  HDAC6 activity raw data (signal): 299609
HDAC6; Conc. 1.23E-07 M, t2
  HDAC6 activity raw data (signal): 290391
HDAC6; Conc. 1.37E-08 M, t1
  HDAC6 activity raw data (signal): 820280
HDAC6; Conc. 1.37E-08 M, t2
  HDAC6 activity raw data (signal): 820159
HDAC6; Conc. 1.52E-09 M, t1
  HDAC6 activity raw data (signal): 1558048
HDAC6; Conc. 1.52E-09 M, t2
  HDAC6 activity raw data (signal): 1527304
HDAC6; Conc. 3.33E-06 M, t1
  HDAC6 activity raw data (signal): 43007
HDAC6; Conc. 3.33E-06 M, t2
  HDAC6 activity raw data (signal): 45218
HDAC6; Conc. 3.70E-07 M, t1
  HDAC6 activity raw data (signal): 181567
HDAC6; Conc. 3.70E-07 M, t2
  HDAC6 activity raw data (signal): 190636
HDAC6; Conc. 4.12E-08 M, t1
  HDAC6 activity raw data (signal): 459108
HDAC6; Conc. 4.12E-08 M, t2
  HDAC6 activity raw data (signal): 432840
HDAC6; Conc. 4.57E-09 M, t1
  HDAC6 activity raw data (signal): 1111578
HDAC6; Conc. 4.57E-09 M, t2
  HDAC6 activity raw data (signal): 1107939
HDAC6; Conc. 5.08E-10 M, t1
  HDAC6 activity raw data (signal): 1904356
HDAC6; Conc. 5.08E-10 M, t2
  HDAC6 activity raw data (signal): 1828745
HDAC6; Supp. Table 8
  selectivity for HDAC6 over HDAC8: 80 fold
  selectivity for HDAC6 over HDACs1/2/3: > 10 fold
HDAC6; figure legends, Supp. Tables 1 and 8, read-out: HDAC6 IC50
  IC50: 4.4 nM
HDAC2
  IC50: 200 nM
